Measurements taken from US6872748B2 (priority 2001, dated 2005).
Like-named read-outs stand apart in the source and are kept apart here.

Experiments:
Male ICR mice = assay: animal or person; format: in vivo; settings: for ED50: Mus musculus, ip, read-out: Writhing Test (ED50 = μG/KG); for Relative effect (fold stronger than capsaicin): mouse, in vivo
VR1 [1] = biological target: T1, VR1 (Rattus norvegicus, UniProt O35433); assay: biochemical; format: binding
T1 construct: expressed in transfected cells; host or cells: Chinese Hamster Ovary cells (CHO, ATCC CCL-61), Tet-off inducible expression
T1 sequence (O35433 whole entry): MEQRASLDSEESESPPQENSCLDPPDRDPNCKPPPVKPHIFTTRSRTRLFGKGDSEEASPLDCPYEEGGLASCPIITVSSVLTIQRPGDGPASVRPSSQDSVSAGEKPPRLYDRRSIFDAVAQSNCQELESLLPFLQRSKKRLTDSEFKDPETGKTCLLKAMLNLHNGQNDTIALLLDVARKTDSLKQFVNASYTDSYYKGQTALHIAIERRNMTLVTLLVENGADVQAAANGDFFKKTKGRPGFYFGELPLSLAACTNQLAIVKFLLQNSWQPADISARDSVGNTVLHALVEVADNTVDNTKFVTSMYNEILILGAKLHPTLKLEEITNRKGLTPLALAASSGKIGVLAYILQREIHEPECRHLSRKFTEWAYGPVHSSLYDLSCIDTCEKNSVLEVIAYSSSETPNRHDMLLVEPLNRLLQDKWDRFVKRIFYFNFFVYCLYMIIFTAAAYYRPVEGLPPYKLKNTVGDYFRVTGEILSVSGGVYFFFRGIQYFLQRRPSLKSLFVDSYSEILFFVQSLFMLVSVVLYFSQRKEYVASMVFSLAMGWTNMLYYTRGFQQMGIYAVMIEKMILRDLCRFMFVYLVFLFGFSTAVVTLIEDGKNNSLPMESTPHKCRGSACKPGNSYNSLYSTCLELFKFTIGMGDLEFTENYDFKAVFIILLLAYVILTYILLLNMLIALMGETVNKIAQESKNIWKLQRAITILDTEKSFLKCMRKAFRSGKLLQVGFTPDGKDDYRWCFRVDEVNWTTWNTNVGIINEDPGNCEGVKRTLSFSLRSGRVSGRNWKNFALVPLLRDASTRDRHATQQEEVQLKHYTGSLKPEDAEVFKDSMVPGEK

VR1 [2] = biological target: T1, VR1; assay: cell-based
Male Sprague-Dawley rat = settings: in vivo
[3] = read-out: Binding Affinity (Ki = nM)

SMILES	ED50 (Male ICR mice)	Ki (VR1 [1])	Relative effect (fold stronger than capsaicin) (Male ICR mice)	MPP (moderate pain-producing potency) (Male Sprague-Dawley rat)	RPP (relative pain-producing potency) (Male Sprague-Dawley rat)	other results
COc1cc(CNC(=O)CCCC/C=C/C(C)C)ccc1O [Capsaicin, 8-methyl-N-vanillyl-6-nonenamides, reference compound]	1.34 µg/kg	–	–	–	–	–
COc1cc(CNC(=S)NCC(CCc2ccc(C)c(C)c2)COC(=O)C(C)(C)C)ccc1O (stereo not shown) [Compound 28, N-[4-(3,4-Dimethylphenyl)-2-(pivaloyloxymethyl)butyl]-N′-[4-hydroxy-3-methoxybenzyl]thiourea]	–	24.9 nM	–	–	–	–
COc1cc(CNC(=S)NCC(CCc2ccc(C(C)(C)C)cc2)COC(=O)C(C)(C)C)ccc1O (stereo not shown) [Compound 29, N-[4-tert-Butylphenyl-2-(pivaloyloxymethyl)butyl]-N′-[4-hydroxy-3-methoxybenzyl]thiourea]	–	18.3 nM	–	–	–	–
COc1cc(CC(=O)NCC(CCc2ccc(C)c(C)c2)COC(=O)C(C)(C)C)ccc1O (stereo not shown) [Compound 34, N-[4-(3,4-Dimethylphenyl)-2-(pivaloyloxymethyl)butyl]-2-[4-hydroxy-3-methoxyphenyl]acetamide]	0.934 µg/kg	153 nM	1.4	–	–	EC50 (VR1 [2]): 0.784 nM; fold stronger effect than JYL-273 (45Ca influx EC50) (VR1 [2]): 4 fold; fold stronger effect than LJO-198 (45Ca influx EC50) (VR1 [2]): 16 fold; fold stronger effect than capsaicin (45Ca influx EC50) (VR1 [2]): 57 fold
COc1cc(CC(=O)NCC(CCc2ccc(C(C)(C)C)cc2)COC(=O)C(C)(C)C)ccc1O (stereo not shown) [Compound 35, N-[4-(4-tert-Butylphenyl)-2-(pivaloyloxymethyl)butyl]-2-[4-hydroxy-3-methoxyphenyl]acetamide]	–	36.3 nM	–	–	–	–
COc1cc(CC(=O)NCC(CCc2ccc(C)c(C)c2)COC(=O)C(C)(C)C)ccc1OCCN (stereo not shown) [Compound 38, N-[4-(3,4-Dimethylphenyl)-2-(pivaloyloxymethyl)butyl]-2-[4-(2-aminoethoxy)-3-methoxyphenyl]acetamide]	0.076 µg/kg	855 nM	18	29 µg/mL	~5.5	–
COc1cc(CNC(=S)NC(COC(=O)C(C)(C)C)Cc2ccc(C)c(C)c2)ccc1O (stereo not shown) [Compound 62, N-[3-(3,4-Dimethylphenyl)-1-pivaloyloxy-2-propyl]-N′-[4-hydroxy-3-methoxybenzyl]thiourea]	0.006 µg/kg	45.3 nM	224	11.57 µg/mL	14	–
COc1cc(CNC(=S)NC(COC(=O)C(C)(C)C)Cc2ccc(C(C)(C)C)cc2)ccc1O (stereo not shown) [Compound 63, N-[3-(4-tert-Butylphenyl)-1-pivaloyloxy-2-propyl]-N′-[4-hydroxy-3-methoxybenzyl]thiourea]	0.00036 µg/kg	34.6 nM	–	–	–	–
COc1cc(CNC(=S)NC(CCc2ccc(C)c(C)c2)COC(=O)C(C)(C)C)ccc1O (stereo not shown) [Compound 64, N-[4-(3,4-Dimethylphenyl)-1-pivaloyloxy-2-butyl]-N′-[4-hydroxy-3-methoxybenzyl]thiourea]	–	244 nM	–	–	–	–
COc1cc(CNC(=S)NC(COC(=O)C(C)(C)C)Cc2ccc(C)c(C)c2)ccc1OCCN (stereo not shown) [Compound 74, N-[3-(3,4-Dimethylphenyl)-1-pivaloyloxy-2-propyl]-N′-[4-(2-aminoethoxy)-3-methoxybenzyl]thiourea]	3e-05 µg/kg	–	–	18.02 µg/mL	–	–
COc1cc(CNC(=S)NC(COC(=O)C(C)(C)C)Cc2ccc(C(C)(C)C)cc2)ccc1OCCN (stereo not shown) [Compound 75, N-[3-(4-tert-Butylphenyl)-1-pivaloyloxy-2-propyl]-N′-[4-(2-aminoethoxy)-3-methoxybenzyl]thiourea]	0.00061 µg/kg	341 nM	–	47 µg/mL	~3.4	–
COc1cc(CNC(=S)OCC(COC(=O)C(C)(C)C)Cc2ccc(C)c(C)c2)ccc1O (stereo not shown) [Compound 125, N-(4-hydroxy-3-methoxybenzyl)-O-[2-(3,4-Dimethylbenzyl)-3-(pivaloyloxy)propyl]thiocarbamate]	–	143 nM	–	–	–	–
COc1cc(CNC(=S)OCc2ccc(C(C)(C)C)cc2)ccc1O [Compound 132, O-(4-tert-Butylbenzyl)-N-(4-hydroxy-3-methoxybenzyl) thiocarbamate]	–	1960 nM	–	–	–	–
COc1cc(COC(=S)NCC(COC(=O)C(C)(C)C)Cc2ccc(C)c(C)c2)ccc1O (stereo not shown) [Compound 140, N-[2-(3,4-Dimethylbenzyl)-3-(pivaloyloxy)propyl]-O-(4-hydroxy-3-methoxybenzyl)thiocarbamate]	–	156 nM	–	–	–	EC50 (VR1 [2]): 2.4 nM
COc1cc(COC(=S)NCc2ccc(C(C)(C)C)cc2)ccc1O [Compound 147, N-(4-tert-Butylbenzyl)-O-(4-hydroxy-3-methoxybenzyl)thiocarbamate]	–	1940 nM	–	–	–	–
COc1cc(CNC(=S)NCC(COC(=O)C(C)(C)C)Cc2ccc(C)c(C)c2)ccc1O (stereo not shown) [JYL-79, reference compound]	0.161 µg/kg	–	8	1.7 µg/mL	94	Ki (VR1 [1]; [3]): 17.4 nM
COc1cc(CNC(=S)NCC(COC(=O)C(C)(C)C)Cc2ccc(C(C)(C)C)cc2)ccc1O (stereo not shown) [JYL-273, reference compound]	0.107 µg/kg	–	–	23 µg/mL	7	Ki (VR1 [1]; [3]): 6.35 nM
COc1cc(CC(=O)NCC(COC(=O)C(C)(C)C)Cc2ccc(C)c(C)c2)ccc1O (stereo not shown) [LJO-198, reference compound]	0.0235 µg/kg	157 nM	57	–	–	–
COc1cc(CC(=O)NCC(COC(=O)C(C)(C)C)Cc2ccc(C)c(C)c2)ccc1OCCN (stereo not shown) [MSK-195, reference compound]	1.17 µg/kg	603 nM	1.1	14.9 µg/mL	11	–
